Laboratory results as given in publication PMC10994559 (PLOS Neglected Tropical Diseases, 2024).
Where two headings read alike, the source gives them in different places.

What was measured:
T. brucei brucei BSF = test: T. brucei BSF viability, resazurin reduction; type: cell-based, Trypanosoma brucei brucei; details: for EC50: ± SD (Table 2) / ± SE (S3 Table)
Method: T. brucei brucei (strain 427 Lister) blood stream form (BSF) parasites were passaged in complete HMI-9 media supplemented with 10% FCS, Pen-Strep (0.1%) and 2-mercaptoethanol (0.014 v/v) and kept in a 37° C CO2 incubator in filter-cap flasks.
(§1) Viability of T. brucei brucei BSF and T. cruzi trypomastigotes was assayed with fluorescence resazurin reduction assay, essentially as described above. […] Next, selected compounds were tested at 2.5 μM concentration, and promising compounds subjected to 18 concentrations dose response analyses. AN3057 and AmB were used as a control drug in T. brucei and T. cruzi, respectively.

[1] = system: intracellular L. infantum amastigotes; test: Parasite rescue assay (intramacrophage, J774 infected with L. infantum); type: cell-based, Leishmania infantum; details: J774, 25 µM; intracellular amastigote; read-out: viability, intracellular L. major amastigote (25 µM)
T. cruzi trypomastigotes = test: T. cruzi viability, resazurin reduction; type: cell-based, Trypanosoma cruzi; details: Trypanosoma cruzi
Method: T. cruzi (Y strain) trypomastigotes were passaged in liver infusion broth media supplemented with tryptose, NaCl, Na2HPO4, KCl, glucose, hemin, Pen-Strep (1%), 10% FCS (pH: 7.2) and kept at 28°C.
as §1

L. major promastigotes = test: L. major promastigote viability, resazurin reduction; type: cell-based, Leishmania major; details: Leishmania major
Description: (§2) The infectivity of the parasites was boosted by passaging in Balb/c mice and culturing the infected lymph nodes after six weeks. L. infantum (MHOM / BR / 76 / M4192) parasite was passaged in the same media formulation with 0.5% urine.

[2] = system: L. infantum promastigotes; test: L. infantum promastigote viability, resazurin reduction; type: cell-based, Leishmania infantum; details: Leishmania infantum
Description: as §2

E. histolytica = E. histolytica viability, ATP luminescence (Cell titer glo); type: cell-based, Entamoeba histolytica; details: Entamoeba histolytica; for EC50: 9 to 16-point dose response
Method: Entamoeba histolytica (strain B2-5) was passaged in TY-1 medium (Trypticase peptone BBL, Yeast extract BBL, glucose, NaCl, K2HPO4, KH2PO4, cysteine, ascorbic acid, ammonium iron citrate, adult bovine serum, Diamond tween 80, penicillin G, amikacin (pH:6.8)) and kept in 37°C incubator in completely filled tubes with closed lid.
Viability of E. histolytica was assayed via a luminescence assay based on ATP quantification in the live cells. Briefly, 2.5x10^4 cell/ml were exposed to 25 μM of compounds in 96 well plates (non-transparent, tissue culture treated, flat bottom; SPL Life Sciences) in triplicate for 48h. Plates were incubated in sealed anaerobic bags (Oxoid AGS) together with an Anaerogen compact bag (Thermo Scientific) and anaerobic indicator (Thermo Scientific) at 37°C. Then, Cell titer glo reagent (Promega) was added to the reaction (1:5) according to manufacturers’ instruction. After 15 min of orbital shaking, followed by 10 min incubation at RT, ATP-bioluminescence was quantified at RT using a Synergy H1 plate reader (Synergy H1, BioTek). Metronidazole was included as control drug in all the assays for E. histolytica. Test compounds indicating significant growth reduction in the primary screen were subjected to potency determination. These secondary screens were essentially carried out as detailed above, but with a 9 to 16-point concentration range of the test compounds spanning 0.01–100 μM.

[3] = system: L. major axenic amastigotes; test: L. major axenic amastigote viability, resazurin reduction; details: Leishmania major
Method: L. major LV561(MHOM/IL/67/LRC-L137 JERICHO II) amastigotes were passaged in Grace insect medium supplemented with NaHCO3, 0.1% amikin and 20% of FCS (pH: 5.4) and kept at 33°C.
Exponential growth phase promastigotes of L. major or L. infantum and axenic amastigotes (L. major) were harvested and seeded in 384 well plates (white, non-transparent, tissue culture treated, flat bottom; Corning) (0.5x10^5 cells per well). Compounds were pre-dispensed into the plate with an Echo 650 acoustic dispenser (Beckman Coulter). After 72h incubation, resazurin was added (1:10 v/v) from a […] stock in PBS, followed by incubation for six hours. Then, fluorescence intensity was measured using a microplate reader (Synergy H1, BioTek) with excitation filter: 550 nm and emission filter: 590 nm. Efficient compounds were selected for the next round of viability assay with 2.5 μM concentrations of the compounds. […] All experiments were performed with AmB as a positive control drug in parallel.
Axenic amastigotes, the relevant form that persists in the infected host, were generated in the lab through established procedures, employing harsh pH (pH 5) and high temperature (33°C) conditions.

[4] = Cytotoxicity assay J774, resazurin reduction; type: cell-based, murine; details: mouse, J774 macrophage cells
Method: (§3) Mammalian cell lines (J774 and HepG2) were passaged in RPMI media supplemented with MEM, Pen-Strep (1%) and 10% FCS. Cultures were kept at 37°C incubator with 5% CO2 in filter-cap flasks.
(§4) Murine macrophage cells (J774) and human hepatocyte carcinoma HepG2 cells were seeded at 0.5x10^5 cell/well in 384 well plates in triplicate, exposed to serial dilution of compounds, dispensed using an Echo 650 acoustic dispenser (Labcyte). After incubation for 72 h at 37°C, 5% CO2, cell viability was determined using fluorescence resazurin reduction assay (λEx: 550 nm; λEm: 590 nm).

[5] = system: intracellular L. infantum amastigotes; test: Parasite rescue assay (intramacrophage, J774 infected with L. infantum); type: cell-based, Leishmania infantum; details: Leishmania infantum
Method: After 24 h incubation, cells were washed five times with serum free RPMI and exposed to a serial dilution of test compounds, prepared using an acoustic dispenser (Echo 650, Labcyte), in RPMI (2% FCS). After two days, cells were washed thrice, and 20 μl of 0.05% SDS in RPMI was added upon removal of the supernatant. Upon incubation under orbital shaking for 30 seconds, cell lysis was stopped by addition of 180 μl M199 medium supplemented with 10% FCS. […] Then, fluorescence intensity of the samples was measured with a microplate reader (Synergy H1, BioTek) with λEx: 550 nm and λEm: 590 nm. Percent of viability was calculated according to cell only and media controls.
J774A.1 cells (J774) were infected with L. infantum metacyclic promastigotes. […] After controlled lysis of the infected macrophages, the released parasites were quantified using a resazurin based viability assay.

[6] = system: Murine macrophage cells (J774); test: Cytotoxicity assay J774, resazurin reduction; type: cell-based; details: Mus musculus, J774, 72 h, cytotoxicity, 72 h
Method: as §3, §4

[7] = Trypanosoma brucei, 2.5 µM, read-out: viability, T.brucei (2.5 µM)
[8] = Trypanosoma brucei, read-out: viability, T.brucei (25 µM)
[9] = Trypanosoma brucei, read-out: EC50 T. brucei BSF, dose response, triplicate
[10] = read-out: viability, T.cruzi (2.5 µM)
[11] = 25 µM, read-out: viability, T.cruzi (25 µM)
[12] = 72 h, read-out: viability, L.major promastigote (25 µM)
[13] = 25 µM, read-out: viability, L.major promastigote (25 µM)
[14] = sheet LTC_compound_viability, value ± spread, read-out: viability, L. infantum promastigote (2.5 µM)
[15] = sheet LTC_compound_viability, value ± spread, read-out: viability, L. infantum promastigote (25 µM)
[16] = read-out: viability, E.histolytica (2.5 µM)
[17] = read-out: viability, E.histolytica (25 µM)
[18] = read-out: viability, L.major amastigote (25 µM)
[19] = read-out: viability, J774 (2.5 µM)
[20] = read-out: viability, J774 (25 µM)

| SMILES | viability at 2.5 µM (T. brucei brucei BSF; [7]) | viability at 25 µM (T. brucei brucei BSF; [8]) | EC50 (T. brucei brucei BSF; [9]) | viability at 25 µM [1] | viability at 2.5 µM (T. cruzi trypomastigotes; [10]) | viability at 25 µM (T. cruzi trypomastigotes; [11]) | viability at 25 µM (L. major promastigotes; [12]) | viability at 25 µM (L. major promastigotes; [13]) | viability at 2.5 µM [2, 14] | viability at 25 µM [2, 15] | EC50 (E. histolytica; 48 h) | viability at 2.5 µM (E. histolytica; [16]) | viability at 25 µM (E. histolytica; [17]) | viability at 25 µM [3, 18] | viability at 72 h, 2.5 µM [4, 19] | viability at 72 h, 25 µM [4, 20] | other results |
| --- | --- | --- | --- | --- | --- | --- | --- | --- | --- | --- | --- | --- | --- | --- | --- | --- | --- |
| O=C(Cc1cccc(C(F)(F)F)c1)NC(Cc1ccccc1)C(O)CN1CCN(Cc2ccccc2)CC1 (stereo not drawn) [LTC-8] | 98.5 ± 6.21% | 3.15 ± 1.45% | 7.3 ± 1.7 µM | 67.2 ± 5.73% | 59.3 ± 1.4% | 33.8 ± 0.8% | 67.5 ± 1.55% | 0.28 ± 0.16% | 101 ± 1.24% | 0.96 ± 0.46% | 4.4 ± 1.7 µM | 60.3 ± 6.76% | 0.54 ± 0.81% | 75.1 ± 2.03% | 102 ± 8.6% | 4.16 ± 2.39% | – |
| O=C(CCc1ccc(Br)cc1)NC(Cc1ccccc1)C(O)CN1CCN(Cc2ccccc2)CC1 (stereo not drawn) [LTC-10] | 99.8 ± 6.25% | 2.86 ± 1.31% | 6 ± 1.7 µM | 33.7 ± 12% | 61.1 ± 6.21% | 21.5 ± 1.69% | 65.1 ± 3.01% | 0.71 ± 1% | 100.8 ± 0.96% | 0.85 ± 0.33% | 6.5 ± 1.7 µM | 73.2 ± 7% | 4.28 ± 0.62% | 74.2 ± 2.26% | 99.9 ± 5.33% | 2.99 ± 1.94% | – |
| O=C(Cc1ccc2ccccc2c1)NC(Cc1ccccc1)C(O)CN1CCN(Cc2ccccc2)CC1 (stereo not drawn) [LTC-6] | 91 ± 5.89% | 2.92 ± 1.26% | 5.6 ± 1.7 µM | 47.3 ± 9.73% | 56.4 ± 4.53% | 18.4 ± 1.57% | 66.2 ± 3.33% | 0.62 ± 0.39% | 100.6 ± 0.6% | 0.37 ± 0.06% | 4.9 ± 1.8 µM | 86.8 ± 20.5% | 2.71 ± 1.39% | 73.5 ± 1.98% | 106 ± 6.66% | 2.99 ± 2.56% | – |
| CC[C@@H](C)[C@H](c1nc2ccccc2n1Cc1cn(-c2c(F)c(F)c(F)c(F)c2F)nn1)N1C(=O)c2ccc(C)cc2C1=O [PHT-80] | – | – | 0.4 µM | – | – | – | – | – | – | – | – | – | – | – | – | – | Residual viability, T.brucei (2.5 µM) (T. brucei brucei BSF; BSF, 2.5 µM, 72 h): 3.41±0.28%; viability at 25 µM (T. brucei brucei BSF; Trypanosoma brucei, 72 h, BSF, 72 h, read-out: Residual viability, T.brucei (25 µM)): -2.86 ± 1.75%; viability at 2.5 µM (T. brucei brucei BSF; Trypanosoma brucei, 72 h, read-out: Residual viability, T.brucei (2.5 µM), BSF, 2.5 µM, 72 h): 3.4%; EC50 (T. brucei brucei BSF; read-out: EC50 T. brucei BSF, dose response, triplicate): 0.5 µM; EC50 (T. brucei brucei BSF; read-out: EC50 T. brucei BSF, dose response, triplicate, listed as PH-80): 0.45 µM; viability at 2.5 µM (T. cruzi trypomastigotes; 72 h, 72 h, read-out: Residual viability, T.cruzi (2.5 µM)): 72.4 ± 2.05%; viability at 25 µM (T. cruzi trypomastigotes; 72 h, read-out: Residual viability, T.cruzi (25 µM), 25 µM, 72 h): 25.7 ± 3.29%; viability at 25 µM (L. major promastigotes; 25 µM, 72 h, vs non-treated cells, read-out: Residual viability, L.major promastigote (25 µM)): 11.3 ± 1.4%; viability at 2.5 µM ([2]; 72 h, vs non-treated cells, read-out: Residual viability, L. infantum promastigote (2.5 µM)): 90.2 ± 3.63%; viability at 25 µM ([2]; 72 h, vs non-treated cells, ± SD, triplicate, read-out: Residual viability, L. infantum promastigote (25 µM)): 2.87 ± 0.48%; viability at 2.5 µM (E. histolytica; 2.5 µM, 48 h, read-out: Residual viability, E.histolytica (2.5 µM)): 61.8 ± 13.1%; viability at 25 µM (E. histolytica; 25 µM, 48 h, read-out: Residual viability, E.histolytica (25 µM)): 45.2 ± 18.6%; viability at 2.5 µM ([3]; 72 h, read-out: Residual viability, L.major amastigote (2.5 µM)): 50.9 ± 3.89%; viability at 25 µM ([3]; 72 h, read-out: Residual viability, L.major amastigote (25 µM)): 1.7%; EC50 ([3]; read-out: EC50 L. major axenic amastigote): 2500 ± 1700 nM; EC50 ([5]; J774, read-out: EC50 L. infantum rescue assay, intramacrophage (J774), 18 concentrations): > 10 µM; viability at 25 µM ([5]; J774, rescue assay in J774, 25 µM, read-out: Residual viability, intracellular L. infantum amastigote (25 µM)): 50.6 ± 13.8%; EC50 [6]: > 25 µM; viability at 72 h, 2.5 µM ([4]; cytotoxicity, 72 h, read-out: Residual viability, J774 (2.5 µM)): 124 ± 4.4%; viability at 72 h, 25 µM ([4]; cytotoxicity, 72 h, read-out: Residual viability, J774 (25 µM)): 78.1 ± 6.86% |
